This note sets out measurements from patent publication US20220119383A1 (Gilead Sciences, Inc., priority 2018, published 2022).

For the first experiment, the target named is T1, α4β7 integrin (Homo sapiens, UniProt P13612+P26010).
T1 construct: monitoring the capture of α4β7 integrin expressing cells; endogenous in cells; host or cells: RPMI8866 cells
T1 sequence (P13612 34-1032): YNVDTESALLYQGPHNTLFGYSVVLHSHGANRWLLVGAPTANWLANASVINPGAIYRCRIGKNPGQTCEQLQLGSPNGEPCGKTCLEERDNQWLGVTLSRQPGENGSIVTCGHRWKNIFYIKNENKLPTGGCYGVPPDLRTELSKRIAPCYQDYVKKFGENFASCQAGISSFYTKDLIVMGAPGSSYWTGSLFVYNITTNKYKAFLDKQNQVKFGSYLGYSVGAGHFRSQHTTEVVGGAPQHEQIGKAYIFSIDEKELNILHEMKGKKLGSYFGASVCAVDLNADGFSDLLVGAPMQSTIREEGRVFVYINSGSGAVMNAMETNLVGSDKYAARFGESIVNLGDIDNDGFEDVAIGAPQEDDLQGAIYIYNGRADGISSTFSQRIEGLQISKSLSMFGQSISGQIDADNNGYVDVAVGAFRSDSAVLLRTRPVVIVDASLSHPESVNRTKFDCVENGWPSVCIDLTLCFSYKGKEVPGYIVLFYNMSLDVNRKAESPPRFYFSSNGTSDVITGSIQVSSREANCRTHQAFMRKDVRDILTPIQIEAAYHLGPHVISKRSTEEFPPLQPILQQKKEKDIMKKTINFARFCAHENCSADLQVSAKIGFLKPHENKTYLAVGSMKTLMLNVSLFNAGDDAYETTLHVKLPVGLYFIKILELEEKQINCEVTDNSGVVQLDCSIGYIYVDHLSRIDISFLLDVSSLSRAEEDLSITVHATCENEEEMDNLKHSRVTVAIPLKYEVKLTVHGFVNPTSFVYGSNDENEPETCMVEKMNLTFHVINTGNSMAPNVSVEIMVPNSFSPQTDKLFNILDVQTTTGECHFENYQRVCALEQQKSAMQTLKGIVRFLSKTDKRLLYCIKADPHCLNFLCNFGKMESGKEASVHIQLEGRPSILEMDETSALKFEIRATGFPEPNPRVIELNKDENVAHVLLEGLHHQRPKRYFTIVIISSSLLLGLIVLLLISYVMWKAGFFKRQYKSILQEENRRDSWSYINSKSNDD
T1 sequence (P26010 20-798): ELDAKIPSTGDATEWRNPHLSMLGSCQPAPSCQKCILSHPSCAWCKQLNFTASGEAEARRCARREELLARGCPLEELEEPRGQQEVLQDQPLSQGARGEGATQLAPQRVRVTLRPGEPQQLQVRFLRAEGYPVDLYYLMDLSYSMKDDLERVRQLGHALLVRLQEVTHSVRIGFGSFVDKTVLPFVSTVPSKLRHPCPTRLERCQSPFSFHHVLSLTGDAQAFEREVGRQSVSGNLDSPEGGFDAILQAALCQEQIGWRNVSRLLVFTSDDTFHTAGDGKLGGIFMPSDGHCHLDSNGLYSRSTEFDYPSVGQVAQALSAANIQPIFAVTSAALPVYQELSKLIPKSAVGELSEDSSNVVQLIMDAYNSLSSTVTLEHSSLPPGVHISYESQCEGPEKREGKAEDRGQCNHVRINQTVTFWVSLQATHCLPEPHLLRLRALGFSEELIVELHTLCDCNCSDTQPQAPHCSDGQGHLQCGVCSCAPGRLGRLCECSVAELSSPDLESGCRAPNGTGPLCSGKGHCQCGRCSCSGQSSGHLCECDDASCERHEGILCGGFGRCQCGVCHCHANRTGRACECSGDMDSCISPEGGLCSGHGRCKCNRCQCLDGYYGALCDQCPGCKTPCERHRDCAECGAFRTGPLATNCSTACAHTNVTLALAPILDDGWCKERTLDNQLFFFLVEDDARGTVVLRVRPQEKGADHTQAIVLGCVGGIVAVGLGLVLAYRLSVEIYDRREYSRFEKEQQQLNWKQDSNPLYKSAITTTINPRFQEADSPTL
The experiment is described as follows: α4β7 integrin cell capture assay. Format: cell-based. The following applies: Table 1; capture of RPM18866 cells on MadCAM-1 extracellular domain-coated plate. As to the method:
The potency of inhibitors in preventing α4β7 integrin interaction with MadCAM-1 was measured by monitoring the capture of α4β7 integrin expressing cells on a recombinant MadCAM-1 extracellular domain-coated plate. […] The plates were then washed with PBS and blocked with 3% BSA for 2 hours before being washed again.
RPM18866 cells were spun down and re-suspended in assay medium (DMEM+0.5% FBS+0.5 mM MnCl2) at a density of 0.5×10^6 cells/mL. […] The plates were incubated at 37° C. for 1 hour. 50 μL of cells were transferred to the blocked, MadCAM-1-coated plates and incubated for 30 minutes at 37° C. […] The plates were incubated for 90 minutes at room temperature. The plates were then washed 3 times with 70 μL of PBS per well and imaged on a Cellomics ArrayScan instrument. The cells that were bound to the plate were counted and plotted against the compound concentration to determine the EC50 of the test compounds.
“2,6-difluoro-4-(3-(trifluoromethyl)morpholino)benzoic acid [Example 81]” returned an EC50 of 6 nM. This lies in the single-digit nanomolar range.
The same measure, in the same setting: in the case of `COc1cc(F)cc(C(F)(F)F)c1-c1ccc(C[C@H](NC(=O)c2c(F)cccc2F)C(=O)O)c2cccnc12` (single isomer, unassigned) [Example 7] it was 1.9 nM; in that of `COc1cc(F)cc(C(F)(F)F)c1-c1ccc(C[C@H](NC(=O)c2c(F)cccc2F)C(=O)O)c2cccnc12` (single isomer, unassigned) [Example 8], 41.4 nM; in that of `N#Cc1ccc(-c2ccc(C[C@H](NC(=O)c3c(F)cc(N4CCOC[C@@H]4C(F)(F)F)cc3F)C(=O)O)c3cccnc23)c(Cl)c1` (single isomer, unassigned) [Example 82], 4.7 nM.
Still for that read-out and setting: in the case of `N#Cc1ccc(-c2ccc(C[C@H](NC(=O)c3c(F)cc(N4CCOC[C@H]4C(F)(F)F)cc3F)C(=O)O)c3cccnc23)c(Cl)c1` (single isomer, unassigned) [Example 83] it was 32.9 nM; in that of `O=C(N[C@@H](Cc1ccc(-c2cccc3c2OCCO3)c2ncccc12)C(=O)O)c1c(F)cc(NS(=O)(=O)c2ccc(-c3ccnc(F)c3)cc2)cc1F` [Example 51], 2.9 nM; in that of `O=C(N[C@@H](Cc1ccc(-c2ncc3ccccc3c2Cl)c2ncccc12)C(=O)O)c1c(F)cccc1F` [Example 66, (S)-3-(8-(4-chloroisoquinolin-3-yl)quinolin-5-yl)-2-(2,6-difluorobenzamido)propanoic acid], 18.9 nM.
In the case of `N#Cc1ccc(-c2ccc(C[C@H](NC(=O)c3c(F)cc(NC(C4CC4)C(F)(F)F)cc3F)C(=O)O)c3cccnc23)c(Cl)c1` (some centres unmarked) [Example 89], the EC50 is 14.4 nM.
Still for that read-out and setting: in the case of `CC[C@@H](Nc1cc(F)c(C(=O)N[C@@H](Cc2ccc(-c3cn(C)c(=O)n(C)c3=O)c3ncccc23)C(=O)O)c(F)c1)C(F)(F)F` [Example 113, (S)-2-(2,6-difluoro-4-(((R)-1,1,1-trifluorobutan-2-yl)amino)benzamido)-3-(8-(1,3-dimethyl-2,4-dioxo-1,2,3,4-tetrahydropyrimidin-5-yl)quinolin-5-yl)propanoic acid] it was 1.2 nM; in that of `CC[C@@H](Nc1cc(F)c(C(=O)N[C@@H](Cc2ccc(-c3c(C(F)(F)F)c4cc(F)ccc4n(C)c3=O)c3ncccc23)C(=O)O)c(F)c1)C(F)(F)F` [Example 124], 0.6 nM; in that of “(S)-3-(8-(2-chloro-4-cyanophenyl)quinolin-5-yl)-2-(2,6-difluoro-4-((R)-3-(trifluoromethyl)morpholino)benzamido)propanoic acid [Example 148]”, 60.6 nM.

Still in this experiment, the particulars now being: Table 2; capture of RPM18866 cells on MadCAM-1 extracellular domain-coated plate.
The molecule `Cc1c(-c2ccc(C[C@H](NC(=O)c3c(F)cc(N[C@H](C)C(F)(F)F)cc3F)C(=O)O)c3cccnc23)c(=O)n(C)c2ccc(F)cc12` (atropisomer, axis not shown) [Example 187] had an EC50 of 1.1 nM.
The same measure, in the same setting: the result for `CC[C@@H](Nc1cc(F)c(C(=O)N[C@@H](Cc2ccc(-c3c(N4CCC4)cc(C)n(C)c3=O)c3ncccc23)C(=O)O)c(F)c1)C(F)(F)F` [Example 184] reads 0.9 nM.

Still in this experiment, the particulars now being: capture of α4β7 integrin expressing RPM18866 cells on MadCAM-1 extracellular domain-coated plate.
For the molecule `Cc1cc(N2CCOC[C@@H]2C(F)(F)F)cc(F)c1C(=O)N[C@@H](Cc1ccc(-n2c(=O)c3cccnc3n(C)c2=O)c2ncccc12)C(=O)O` [Example 402], a half-maximal effect (EC50) was put at 0.1 nM.
